The supplement of paper PMC10307832

Tests used:
Assay in all cases: relative viability (nuclei count vs DMSO), 5 days (fraction); higher = more cells survive
Pictilisib + Alpelisib = compound: CS(=O)(=O)N1CCN(Cc2cc3nc(-c4cccc5[nH]ncc45)nc(N4CCOCC4)c3s2)CC1 [Pictilisib] + Cc1nc(NC(=O)N2CCC[C@H]2C(N)=O)sc1-c1ccnc(C(C)(C)C(F)(F)F)c1 [Alpelisib] (partner 2 µM)
Procedure, shortened: (§1)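 Medians of duplicate plates are given as relative viability. That measure is the nuclei count in treated wells divided by the count in vehicle wells. Counts were taken on 4× images of lung cancer cell lines in 1536-well plates, 5 days after pin-tool dosing the day after seeding with one drug alone or a fixed anchor-drug dose plus five library-drug doses (not always all listed) in √10 steps.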

MK-2206 + Dasatinib = compound: NC1(c2ccc(-c3nc4ccn5c(=O)[nH]nc5c4cc3-c3ccccc3)cc2)CCC1 [MK-2206] + Cc1nc(Nc2ncc(C(=O)Nc3c(C)cccc3Cl)s2)cc(N2CCN(CCO)CC2)n1 [Dasatinib] (partner 0.075 µM)
Procedure, shortened: as §1

MK-2206 + Phenformin = compound: NC1(c2ccc(-c3nc4ccn5c(=O)[nH]nc5c4cc3-c3ccccc3)cc2)CCC1 [MK-2206] + N=C(N)NC(=N)NCCc1ccccc1 [Phenformin] (partner 250 µM)
Procedure, shortened: as §1

MK-2206 + Navitoclax = compound: NC1(c2ccc(-c3nc4ccn5c(=O)[nH]nc5c4cc3-c3ccccc3)cc2)CCC1 [MK-2206] + CC1(C)CCC(c2ccc(Cl)cc2)=C(CN2CCN(c3ccc(C(=O)NS(=O)(=O)c4ccc(N[C@H](CCN5CCOCC5)CSc5ccccc5)c(S(=O)(=O)C(F)(F)F)c4)cc3)CC2)C1 [Navitoclax] (partner 0.5 µM)
Procedure, shortened: as §1

MK-2206 + Pemetrexed = compound: NC1(c2ccc(-c3nc4ccn5c(=O)[nH]nc5c4cc3-c3ccccc3)cc2)CCC1 [MK-2206] + Nc1nc2[nH]cc(CCc3ccc(C(=O)N[C@@H](CCC(=O)O)C(=O)O)cc3)c2c(=O)[nH]1 [Pemetrexed] (partner 0.2 µM)
Procedure, shortened: as §1

Cell Line	relative viability (Pictilisib + Alpelisib; first compound 0.02 µM)	relative viability (Pictilisib + Alpelisib; first compound 0.06325 µM)	relative viability (Pictilisib + Alpelisib; first compound 0.6325 µM)	relative viability (Pictilisib + Alpelisib; first compound 2 µM)	relative viability (MK-2206 + Dasatinib; first compound 0.01 µM)	relative viability (MK-2206 + Dasatinib; first compound 0.03162 µM)	relative viability (MK-2206 + Dasatinib; first compound 0.3162 µM)	relative viability (MK-2206 + Dasatinib; first compound 1 µM)	relative viability (MK-2206 + Phenformin; first compound 0.01 µM)	relative viability (MK-2206 + Phenformin; first compound 0.03162 µM)	relative viability (MK-2206 + Phenformin; first compound 0.3162 µM)	relative viability (MK-2206 + Phenformin; first compound 1 µM)	relative viability (MK-2206 + Navitoclax; first compound 0.01 µM)	relative viability (MK-2206 + Navitoclax; first compound 0.03162 µM)	relative viability (MK-2206 + Navitoclax; first compound 0.3162 µM)	relative viability (MK-2206 + Navitoclax; first compound 1 µM)	relative viability (MK-2206 + Pemetrexed; first compound 0.01 µM)	relative viability (MK-2206 + Pemetrexed; first compound 0.03162 µM)	relative viability (MK-2206 + Pemetrexed; first compound 0.3162 µM)	relative viability (MK-2206 + Pemetrexed; first compound 1 µM)
NCI-H1792	0.72	0.715	0.657	0.36	0.758	0.845	0.913	0.819	0.329	0.351	0.161	0.184	0.603	0.706	0.655	0.578	0.76	0.929	0.654	0.373
NCI-H1651	0.969	0.906	0.765	0.516	0.386	0.448	0.478	0.405	0.362	0.302	0.336	0.365	0.994	1.05	1.02	0.998	0.562	0.575	0.621	0.513
A549	0.785	0.627	0.619	0.345					0.173	0.152	0.203	0.124	1.19	1.08	1.11	0.991				
HCC-366	0.452	0.386	0.335	0.174	0.696	0.68	0.434	0.222	0.614	0.686	0.564	0.39	1.04	1.11	0.736	1.04	0.154	0.166	0.302	0.266
EKVX	0.913	0.882	0.761	0.339	0.73	0.522	0.536	0.569	0.24	0.245	0.204	0.256	0.859	1.05	0.934	0.65	0.372	0.386	0.393	0.356
NCI-H1993	0.656	0.712	0.663	0.625	0.29	0.524	0.556	0.51	0.496	0.491	0.562	0.568	0.901	0.801	0.678	0.649	0.727	0.555	0.516	0.477
NCI-H522					0.98	0.842	0.857	0.894	0.605	0.681	0.627	0.613					1.04	0.964	0.887	1
NCI-H1703	0.435	0.314	0.227	0.195									1.15	0.961	0.621	0.776				
NCI-H23	0.728	0.77	0.827	0.487	0.808	0.845	0.787	0.423	0.688	0.844	0.673	0.666	0.956	0.899	0.947	0.811	0.713	0.559	0.651	0.64
NCI-H727	0.715	0.55	0.519	0.376	0.408	0.328	0.394	0.433	0.607	0.71	0.533	0.592	0.424	0.367	0.212	0.314				
IA-LM	0.732	0.982	0.749	0.418									0.724	0.835	0.801	0.669				
SW 900					0.573	0.636	0.531	0.476	0.656	0.71	0.451	0.538					0.494		0.497	0.491
NCI-H1648																	0.719	0.651	0.691	0.786
NCI-H358	0.831	0.981	0.769	0.595	0.169	0.167	0.15	0.147	0.338	0.352	0.328	0.412					0.169	0.154	0.186	0.162
NCI-H1563	1.06	0.851	0.724	0.591	0.492	0.449	0.406	0.407	0.625	0.601	0.606	0.616					0.746	0.771	0.697	0.744
LCLC-103H	0.946	1.03	0.818	0.848	0.459	0.497	0.461	0.355	0.304	0.321	0.351	0.314					0.441	0.435	0.485	0.442
NCI-H2342					0.369	0.296	0.282	0.276	0.657	0.594	0.542	0.417					0.663	0.782	0.675	0.738
ChaGo-K-1					0.61	0.721	0.55	0.447	0.524	0.488	0.46	0.497	1.3	1.17	0.816	0.454	0.267	0.268	0.265	0.265
Calu-6	1.01	0.967	0.909	0.833									0.937	0.9	0.861	0.828				
NCI-H1299	1.06	1.07	1.08	1.04									1.09	1.05	1.06	1.05				
EBC-1	0.904	0.836	0.67	0.295									0.455	0.385	0.23	0.131				
NCI-H650	1.05	1.15	1	0.888	0.448	0.442	0.453	0.326	0.458	0.473	0.471	0.353					0.979	0.913	0.818	1.02
